Target: T1, His-tagged human recombinant DDR-2 kinase domain (His-TEV-DDR2 467-855 aa) (Homo sapiens, UniProt Q16832)
T1 construct: His-TEV-DDR2 467-855 aa
T1 sequence (Q16832 467-855): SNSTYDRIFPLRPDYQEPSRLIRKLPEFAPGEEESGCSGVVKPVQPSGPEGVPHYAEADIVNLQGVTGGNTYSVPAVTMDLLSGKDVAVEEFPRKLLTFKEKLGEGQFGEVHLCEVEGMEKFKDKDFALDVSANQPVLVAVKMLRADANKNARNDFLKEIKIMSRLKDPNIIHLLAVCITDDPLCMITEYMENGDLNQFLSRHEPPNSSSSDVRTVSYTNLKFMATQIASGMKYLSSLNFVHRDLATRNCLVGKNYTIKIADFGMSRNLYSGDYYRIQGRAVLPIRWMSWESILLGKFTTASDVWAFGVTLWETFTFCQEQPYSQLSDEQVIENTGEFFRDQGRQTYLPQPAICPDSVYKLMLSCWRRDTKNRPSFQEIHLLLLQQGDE
Assay: Autophosphorylation assay for biochemical activity testing of DDR2 (HTRF)
Conditions: 4 nM DDR2 kinase domain, 150 μM ATP, 150 min at 22° C.
Method in brief: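 Phospho-tyrosine was detected by HTRF between XL665 anti-6His and cryptate anti-phosphotyrosine PT66 antibodies, using the emission ratio. Inhibition was referenced to the inhibitor-free reaction.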

`CNC(=O)c1cc(Oc2ccc(CNC(=O)Nc3ccnc(Cl)c3)cc2)ccn1` [compound 6] was tested. Which IC50 did it give?
Its IC50 is 1000 nM.

With `CNC(=O)c1cc(Oc2ccc(CNC(=O)Nc3cc4ccccc4nc3OC)cc2)ccn1` [compound 11] as the compound, how does the IC50 read?
The IC50 was 190 nM.

For `Cn1cc(C(F)(F)F)cc(NC(=O)NCc2ccc(Oc3ccnc4ccccc34)cc2)c1=O` [compound 9], which IC50 is on record?
Its IC50 is 51 nM.

Which IC50 does the source give for `CNC(=O)c1cc(Oc2ccc(CNC(=O)Nc3cccnc3OC)cc2)ccn1` [compound 4] here?
Its IC50 is 1600 nM.

With `CNC(=O)c1cc(Oc2ccc(CNC(=O)Nc3ccccn3)cc2)ccn1` [compound 3] as the compound, how does the IC50 read?
The IC50 was 3800 nM.

How did the IC50 turn out when `COc1ncc(C)cc1NC(=O)NCc1ccc(Oc2ccnc(C)c2)c(C)c1` [compound 31] was run?
Its IC50 is 230 nM.

With `CCn1cc(C(F)(F)F)cc(NC(=O)NCc2ccc(Oc3ccnc(C(=O)NC)c3)cc2)c1=O` [compound 11] as the compound, how does the IC50 read?
The IC50 was 91 nM.

Same assay, conditions: Table 6; 4 nM DDR2 kinase domain, 150 μM ATP

For `CNC(=O)c1cc(Oc2ccc(OCC(=O)Nc3cc(C(F)(F)F)cn(C)c3=O)cc2)ccn1` [compound 4], which IC50 is on record?
Its IC50 is 570 nM.

Same assay, conditions: biochemical DDR2 autophosphorylation

With `CNC(=O)c1cc(Oc2ccc(CNC(=O)Nc3cc(C(F)(F)F)ccc3OCCN3CCCC3)cc2)ccn1` [compound 106, 4-(4-{3-[2-(2-Pyrrolidin-1-yl-ethoxy)-5-trifluoromethyl-phenyl]-ureidomethyl}-phenoxy)-pyridine-2-carboxylic acid methylamide] as the compound, how does the IC50 read?
Its IC50 is 140 nM.

For `CNC(=O)c1cc(Oc2ccc(CNC(=O)Nc3cc(C)c(Cl)cc3OCCN3CCOCC3)cc2C)ccn1` [compound 138, 4-(4-{3-[4-Chloro-5-methyl-2-(2-morpholin-4-yl-ethoxy)-phenyl]-ureidomethyl}-2-methyl-phenoxy)-pyridine-2-carboxylic acid methylamide], which IC50 is on record?
Its IC50 is 310 nM.

`CNC(=O)c1cc(Oc2ccc(CNC(=O)Nc3ccc(C(=O)OC)cc3OC)cc2)ccn1` [compound 82, 3-Methoxy-4-{3-[4-(2-methylcarbamoyl-pyridin-4-yloxy)-benzyl]-ureido}-benzoic acid methyl ester] was tested. Which IC50 did it give?
The IC50 was 2900 nM.

`COc1cc(Cl)c(C)cc1NC(=O)NCc1ccc(Oc2ccncc2)c(C)c1` [compound 248, 1-(4-Chloro-2-methoxy-5-methyl-phenyl)-3-[3-methyl-4-(pyridin-4-yloxy)-benzyl]-urea] was tested. Which IC50 did it give?
Its IC50 is 770 nM.

How did the IC50 turn out when `COc1cccc(NC(=O)NCc2ccc(Oc3ccncc3)cc2)c1` [compound 45, 1-(3-Methoxy-phenyl)-3-[4-(pyridin-4-yloxy)-benzyl]-urea] was run?
The IC50 was 4000 nM.

For `CNC(=O)c1cc(Oc2ccc(CNC(=O)Nc3ncc(C(F)(F)F)cc3Cl)cc2)ccn1` [compound 91, 4-{4-[3-(3-Chloro-5-trifluoromethyl-pyridin-2-yl)-ureidomethyl]-phenoxy}-pyridine-2-carboxylic acid methylamide], which IC50 is on record?
The IC50 was 6600 nM.

With `O=C(NCc1ccc(Oc2ccncc2)cc1)Nc1ccccc1C(F)(F)F` [compound 26] as the compound, how does the IC50 read?
Its IC50 is 20000 nM.

`CC(=O)c1cccc(NC(=O)NCc2ccc(Oc3ccncc3)cc2)c1` [compound 7] was tested. Which IC50 did it give?
Its IC50 is 10000 nM.

`CNC(=O)c1cc(Oc2ccc(CNC(=O)Nc3ccccn3)cc2)ccn1` [compound 85, 4-{4-[(3-Pyridin-2-yl-ureido)-methyl]-phenoxy}-pyridine-2-carboxylic acid methylamide] was tested. Which IC50 did it give?
The IC50 was 3800 nM.

Which IC50 does the source give for `CNC(=O)c1cc(Oc2ccc(CNC(=O)Nc3cc(C(F)(F)F)ccc3OC)cc2C)ccn1` [compound 102, 4-{4-[3-(2-Methoxy-5-trifluoromethyl-phenyl)-ureidomethyl]-2-methyl-phenoxy}-pyridine-2-carboxylic acid methylamide] here?
Its IC50 is 50 nM.

For `CNC(=O)c1cc(Oc2ccc(CNC(=O)Nc3cc(C(F)(F)F)ccc3OC)c(C)c2)ccn1` [compound 105, 4-{4-[3-(2-Methoxy-5-trifluoromethyl-phenyl)-ureidomethyl]-3-methyl-phenoxy}-pyridine-2-carboxylic acid methylamide], which IC50 is on record?
Its IC50 is 180 nM.

Which IC50 does the source give for `CNC(=O)c1cc(Oc2ccc(CNC(=O)Nc3cc(Cl)c(C)cc3OCCN3CCCC3)cc2)ccn1` [compound 173, 4-(4-{3-[5-Chloro-4-methyl-2-(2-pyrrolidin-1-yl-ethoxy)-phenyl]-ureidomethyl}-phenoxy)-pyridine-2-carboxylic acid methylamide] here?
The IC50 was 260 nM.

Which IC50 does the source give for `CCOc1ccc(C(F)(F)F)cc1NC(=O)NCc1ccc(Oc2ccnc(C(=O)NC)c2)c(C)c1` [compound 229, 4-{4-[3-(2-Ethoxy-5-trifluoromethyl-phenyl)-ureidomethyl]-2-methyl-phenoxy}-pyridine-2-carboxylic acid methylamide] here?
The IC50 was 84 nM.

Which IC50 does the source give for `O=C(NCc1ccc(Oc2ccncc2)cc1)Nc1ccc(Br)cc1Cl` [compound 35, 1-(4-Bromo-2-chloro-phenyl)-3-[4-(pyridin-4-yloxy)-benzyl]-urea] here?
Its IC50 is 9500 nM.

With `CNC(=O)c1cc(Oc2ccc(CNC(=O)Nc3cc(C(F)(F)F)ccc3OC3CCNCC3)cc2)ccn1` [compound 115, 4-(4-{3-[2-(Piperidin-4-yloxy)-5-trifluoromethyl-phenyl]-ureidomethyl}-phenoxy)-pyridine-2-carboxylic acid methylamide] as the compound, how does the IC50 read?
Its IC50 is 20 nM.

How did the IC50 turn out when `O=C(NCc1ccc(Oc2ccncc2)cc1)Nc1ccc(Cl)c(Cl)c1` [compound 38, 1-(3,4-Dichloro-phenyl)-3-[4-(pyridin-4-yloxy)-benzyl]-urea] was run?
The IC50 was 2100 nM.

Which IC50 does the source give for `CNC(=O)c1cc(Oc2ccc(CNC(=O)Nc3cc(C(F)(F)F)ccc3OC)cc2)ccn1` [compound 63, 4-{4-[3-(2-Methoxy-5-trifluoromethyl-phenyl)-ureidomethyl]-phenoxy}-pyridine-2-carboxylic acid methylamide] here?
Its IC50 is 61 nM.

Which IC50 does the source give for `O=C(NCc1ccc(Oc2ccncc2)cc1)Nc1ccc(Br)cc1` [compound 9] here?
Its IC50 is 3800 nM.

`CNC(=O)c1cc(Oc2ccc(CNC(=O)Nc3cc(C(F)(F)F)ccc3OCCOC)cc2)ccn1` [compound 166, 4-(4-{3-[2-(2-Methoxy-ethoxy)-5-trifluoromethyl-phenyl]-ureidomethyl}-phenoxy)-pyridine-2-carboxylic acid methylamide] was tested. Which IC50 did it give?
Its IC50 is 140 nM.

How did the IC50 turn out when `Cc1cc(NC(=O)NCc2ccc(Oc3cc(N)ncn3)c(C)c2)c(OCCN(C)C)cc1Cl` [compound 251, 1-[4-(6-Amino-pyrimidin-4-yloxy)-3-methyl-benzyl]-3-[4-chloro-2-(2-dimethylamino-ethoxy)-5-methyl-phenyl]-urea] was run?
Its IC50 is 440 nM.

Which IC50 does the source give for `CNCCOc1cc(Cl)c(C(F)(F)F)cc1NC(=O)NCc1ccc(Oc2ccnc(C(=O)NC)c2)c(C)c1` [compound 147, 4-(4-{3-[4-Chloro-2-(2-methylamino-ethoxy)-5-trifluoromethyl-phenyl]-ureidomethyl}-2-methyl-phenoxy)-pyridine-2-carboxylic acid methylamide] here?
The IC50 was 41 nM.

Which IC50 does the source give for `CNC(=O)c1cc(Oc2ccc(CNC(=O)Nc3cc(C(F)(F)F)ccc3OC)cc2F)ccn1` [compound 217, 4-{2-Fluoro-4-[3-(2-methoxy-5-trifluoromethyl-phenyl)-ureidomethyl]-phenoxy}-pyridine-2-carboxylic acid methylamide] here?
Its IC50 is 21 nM.

How did the IC50 turn out when `CNC(=O)c1cc(Oc2ccc(CNC(=O)Nc3cc(C(F)(F)F)c(Cl)cc3OCCNS(C)(=O)=O)cc2)ccn1` [compound 194, 4-(4-{3-[4-Chloro-2-(2-methanesulfonylamino-ethoxy)-5-trifluoromethyl-phenyl]-ureidomethyl}-phenoxy)-pyridine-2-carboxylic acid methylamide] was run?
The IC50 was 64 nM.

For `Cc1ccc(NC(=O)NCc2ccc(Oc3ccncc3)cc2)cc1Cl` [compound 27], which IC50 is on record?
Its IC50 is 740 nM.

`CNC(=O)c1cc(Oc2ccc(CNC(=O)Nc3cc(Cl)cnc3Cl)cc2)ccn1` [compound 93, 4-{4-[3-(2,5-Dichloro-pyridin-3-yl)-ureidomethyl]-phenoxy}-pyridine-2-carboxylic acid methylamide] was tested. Which IC50 did it give?
The IC50 was 42 nM.

With `CC(=O)Nc1cc(Oc2ccc(CNC(=O)Nc3cc(C)c(Cl)cc3OCCN(C)C)cc2C)ccn1` [compound 247, N-[4-(4-{3-[4-Chloro-2-(2-dimethylamino-ethoxy)-5-methyl-phenyl]-ureidomethyl}-2-methyl-phenoxy)-pyridin-2-yl]-acetamide] as the compound, how does the IC50 read?
The IC50 was 6 nM.

With `CNC(=O)c1cc(Oc2ccc(CNC(=O)Nc3cc(C)c(Cl)cc3OCCN3CCOCC3)c(C)c2)ccn1` [compound 133, 4-(4-{3-[4-Chloro-5-methyl-2-(2-morpholin-4-yl-ethoxy)-phenyl]-ureidomethyl}-3-methyl-phenoxy)-pyridine-2-carboxylic acid methylamide] as the compound, how does the IC50 read?
Its IC50 is 2000 nM.

How did the IC50 turn out when `O=C(NCc1ccc(Oc2ccncc2)cc1)Nc1ccc(Br)c(C(F)(F)F)c1` [compound 64, 1-(4-Bromo-3-trifluoromethyl-phenyl)-3-[4-(pyridin-4-yloxy)-benzyl]-urea] was run?
Its IC50 is 1700 nM.

For `COc1ccc(C(F)(F)F)cc1NC(=O)NCc1ccc(Oc2ccncc2)cc1` [compound 62, 1-(2-Methoxy-5-trifluoromethyl-phenyl)-3-[4-(pyridin-4-yloxy)-benzyl]-urea], which IC50 is on record?
Its IC50 is 2 nM.

For `CNC(=O)c1cc(Oc2ccc(CNC(=O)Nc3cc(C)c(Cl)cc3OCCNC(=O)C(F)(F)F)cc2)ccn1` [compound 187, 4-[4-(3-{4-Chloro-5-methyl-2-[2-(2,2,2-trifluoro-acetylamino)-ethoxy]-phenyl}-ureidomethyl)-phenoxy]-pyridine-2-carboxylic acid methylamide], which IC50 is on record?
Its IC50 is 660 nM.

How did the IC50 turn out when `CNC(=O)c1cc(Oc2ccc(CNC(=O)Nc3cc(C(F)(F)F)ccc3OCC(=O)O)cc2)ccn1` [compound 94, (2-{3-[4-(2-Methylcarbamoyl-pyridin-4-yloxy)-benzyl]-ureido}-4-trifluoromethyl-phenoxy)-acetic acid] was run?
The IC50 was 1600 nM.

Source: patent US20150225369A1, “DDR2 INHIBITORS FOR THE TREATMENT OF OSTEOARTHRITIS” (Merck Patent GmbH, priority 2012, published 2015)
